Measured values published in US9518064B2, “Imidazothiadiazole and imidazopyridazine derivatives as protease activated receptor 4 (PAR4) inhibitors for treating platelet aggregation” (BRISTOL-MYERS SQUIBB COMPANY, priority 2012, dated 2016).
pEC50, pIC50: −log10 of the molar value. Where no end group is shown, it is not given here.

Columns and labels:
[1] = target: T1, PAR4 (Homo sapiens (Human), UniProt Q96RI0); test: FLIPR assay in PAR4-expressing HEK293 cells (calcium mobilization); format: cell-based; settings: PAR4 antagonist activity, FLIPR assay as described in Example A
T1 sequence (Q96RI0 18-385): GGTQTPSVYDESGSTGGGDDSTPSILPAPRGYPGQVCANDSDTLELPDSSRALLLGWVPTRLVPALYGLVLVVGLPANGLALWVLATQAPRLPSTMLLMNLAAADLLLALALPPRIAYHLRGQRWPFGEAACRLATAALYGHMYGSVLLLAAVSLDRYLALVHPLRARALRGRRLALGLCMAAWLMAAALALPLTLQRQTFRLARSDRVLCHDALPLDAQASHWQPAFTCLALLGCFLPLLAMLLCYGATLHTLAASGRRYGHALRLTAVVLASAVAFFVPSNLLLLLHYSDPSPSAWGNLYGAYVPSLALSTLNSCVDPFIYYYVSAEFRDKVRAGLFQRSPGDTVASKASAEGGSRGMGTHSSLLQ

[2] = target: T1, PAR4; test: Gamma thrombin induced platelet aggregation assay (PRP assay); format: cell-based; settings: γ-thrombin induced platelet aggregation in PRP
[3] = ACS patients; cited from earlier work
[4] = target: PAR1 (Homo sapiens (Human), UniProt P25116); test: FLIPR PAR1 counter screen (SFFLRR-induced calcium mobilization) in HEK293 cells; format: cell-based; settings: Example A, routinely tested; read-out: EC50 of agonist peptide in the assay (PAR1 counter screen)
Chain of PAR1 (P25116 22-425): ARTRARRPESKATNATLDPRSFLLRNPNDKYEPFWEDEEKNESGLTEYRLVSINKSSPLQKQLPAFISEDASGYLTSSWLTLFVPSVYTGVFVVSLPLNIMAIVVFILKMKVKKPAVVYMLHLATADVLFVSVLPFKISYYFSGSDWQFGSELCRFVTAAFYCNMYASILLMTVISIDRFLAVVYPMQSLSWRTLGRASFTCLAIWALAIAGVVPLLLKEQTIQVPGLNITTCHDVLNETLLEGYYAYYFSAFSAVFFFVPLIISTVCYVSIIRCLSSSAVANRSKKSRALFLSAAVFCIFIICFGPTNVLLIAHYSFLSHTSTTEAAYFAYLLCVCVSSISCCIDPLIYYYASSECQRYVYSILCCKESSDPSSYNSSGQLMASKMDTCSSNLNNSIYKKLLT

[5] = tested on: human PRP; test: Tissue factor-induced platelet aggregation assay; format: cell-based; settings: FIGS. 1 and 2
Source text: Example E is a tissue factor-induced platelet aggregation assay. The conditions in this assay mimic the physiological events during thrombus formation. In this assay, platelet aggregation in human PRP was initiated by the addition of tissue factor and CaCl2. Tissue factor, the initiator of the extrinsic coagulation cascade, is highly elevated in human atherosclerotic plaque. Exposure of blood to tissue factor at the atherosclerotic site triggers a robust generation of thrombin and induces the formation of obstructive thrombi.
The ability of PAR1 or PAR4 antagonists to inhibit platelet aggregation induced by endogenous thrombin can be tested in a tissue factor driven aggregation assay. Aggregation is initiated by addition of CaCl2 and recombinant human tissue factor, which results in the generation of thrombin through activation of the coagulation pathway in the plasma. Anticoagulant agents such as corn trypsin inhibitor (Haematologic Technologies, Essex Junction, Vt.) at 50 μg/ml and PEFABLOC® FG (Centerchem, Norwalk, Conn.) are also added to the sample to prevent fibrin clot formation during the time of the study. Platelet aggregation is monitored using standard instrumentation including optical aggregometer or impedance aggregometer.

Compound | pIC50 [1] | pIC50 [2] | also measured
COc1cc(OCc2cccc(-c3ccc4c(c3)OCO4)c2)c2cc(-c3cn4nc(OC)sc4n3)oc2c1 [Example 18] | 8.46 | 7.17 | 
COc1cc(OCc2cccc(-c3ccc4nccn4c3)c2)c2cc(-c3cn4nc(OC)sc4n3)oc2c1 [Example 23] |  | 6.20 | 
COc1cc(OCc2cccc(-c3cccnc3C#N)c2)c2cc(-c3cn4nc(OC)sc4n3)oc2c1 [Example 26] |  | 6.01 | 
COc1cc(OCc2cccc(-c3ccc([N+](=O)[O-])nc3)c2)c2cc(-c3cn4nc(OC)sc4n3)oc2c1 [Example 28] |  | 7.61 | 
COc1cc(OCc2cccc(-c3ccc(C#N)c(F)c3)c2)c2cc(-c3cn4nc(OC)sc4n3)oc2c1 [Example 30] |  | 6.90 | 
COc1cc(OCc2cccc(-c3ccc4c(c3)OCCO4)c2)c2cc(-c3cn4nc(OC)sc4n3)oc2c1 [Example 31] |  | 7.30 | 
COc1cc(OCc2cccc(-c3ccc(F)c(C)n3)c2)c2cc(-c3cn4nc(OC)sc4n3)oc2c1 [Example 32] | 9.24 | 5.56 | 
COc1cc(OCc2cccc(-c3cnsc3)c2)c2cc(-c3cn4nc(OC)sc4n3)oc2c1 [Example 48] | 8.99 | 7.18 | 
COc1cc(OCc2cccc(-c3ccc(N4CCOCC4)nc3)c2)c2cc(-c3cn4nc(OC)sc4n3)oc2c1 [Example 59] | 8.32 | 5.57 | 
COc1cc(OCc2cccc(-c3ccc(C(=O)OC(C)(C)C)nc3)c2)c2cc(-c3cn4nc(OC)sc4n3)oc2c1 [Example 60] | 8.38 | 7.09 | 
COc1cc(OCc2cccc(-c3cncnc3)c2)c2cc(-c3cn4nc(C(C)(F)F)sc4n3)oc2c1 [Example 63, 2-(1,1-Difluoroethyl)-6-(6-methoxy-4-((3-(pyrimidin-5-yl)benzyl)oxy)benzofuran-2-yl)imidazo[2,1-b][1,3,4]thiadiazole] | 8.39 | 5.62 | 
COc1cc(OCc2cccc(-c3cncnc3)c2)c2cc(-c3cn4nc([C@H](C)F)sc4n3)oc2c1 [Example 64, (S)-2-(1-Fluoroethyl)-6-(6-methoxy-4-((3-(pyrimidin-5-yl)benzyl)oxy)benzofuran-2-yl)imidazo[2,1-b][1,3,4]thiadiazole] |  | 6.31 | 
COc1cc(OCc2cccc(-c3ccc(F)nc3)c2)c2cc(-c3cn4nc(C(C)(F)F)sc4n3)oc2c1 [Example 68] | 8.47 | 5.65 | 
COc1cc(OCc2cccc(-c3ccc(F)cn3)c2)c2cc(-c3cn4nc([C@H](C)F)sc4n3)oc2c1 [Example 69] |  | 7.88 | 
COc1cc(COc2cc(OC)cc3oc(-c4cn5nc(OC)sc5n4)cc23)cc(-c2cnc(OC)nc2)c1 [Example 71] | 9.30 | 8.44 | 
COc1nn2cc(-c3nc4c(OCc5cccc(-c6ccoc6)c5)cccc4o3)nc2s1 [Example 81, 4-((3-(Furan-3-yl)benzyl)oxy)-2-(2-methoxyimidazo[2,1-b][1,3,4]thiadiazol-6-yl)benzo[d]oxazole] | 7.66 | 5.30 | 
COc1cc(OCc2cccc(C3CCOCC3)c2)c2cc(-c3cn4nc(OC)sc4n3)oc2c1 [Example 92, 2-Methoxy-6-(6-methoxy-4-((3-(tetrahydro-2H-pyran-4-yl)benzyl)oxy)benzofuran-2-yl)imidazo[2,1-b][1,3,4]thiadiazole] | 9.14 |  | 
COc1cc(OCc2cccc(C3=CCOCC3)c2)c2cc(-c3cn4nc(OC)sc4n3)oc2c1 [Example 93] | 9.15 | 6.98 | 
COc1cc(OCc2cccc(C3=CCCCC3)c2)c2cc(-c3cn4nc(OC)sc4n3)oc2c1 [Example 94] | 8.66 |  | 
COc1cc(OCc2cccc(C3CCCCC3)c2)c2cc(-c3cn4nc(OC)sc4n3)oc2c1 [Example 95] | 9.16 |  | 
COc1cc(OCc2cccc(-c3ccc(C(=O)N(C)C)cc3)n2)c2cc(-c3cn4nc(OC)sc4n3)oc2c1 [Example 96, 4-(6-(((6-Methoxy-2-(2-methoxyimidazo[2,1-b][1,3,4]thiadiazol-6-yl)benzofuran-4-yl)oxy)methyl)pyridin-2-yl)-N,N-dimethylbenzamide] | 9.64 |  | 

Compound | pIC50 [1] | pIC50 [2] | also measured
COc1cc(OCc2ccnc(-c3ccnc(F)c3)n2)c2cc(-c3cn4nc(OC)sc4n3)oc2c1 [Example 97, 6-(4-((2-(2-Fluoropyridin-4-yl)pyrimidin-4-yl)methoxy)-6-methoxybenzofuran-2-yl)-2-methoxyimidazo[2,1-b][1,3,4]thiadiazole] | 9.44 | 8.53 | 
COc1cc(OCc2ccnc(-c3ccc(C(=O)N(C)C)cc3)n2)c2cc(-c3cn4nc(OC)sc4n3)oc2c1 [Example 98] | 9.54 | 8.78 | 
COc1cc(OCc2ccnc(-c3cccc(C#N)c3)n2)c2cc(-c3cn4nc(OC)sc4n3)oc2c1 [Example 99] | 7.31 |  | 
COc1ccc(-c2nccc(COc3cc(OC)cc4oc(-c5cn6nc(OC)sc6n5)cc34)n2)cc1 [Example 100] | 9.12 | 8.74 | 
COc1cc(OCc2ccnc(-c3csc(C)n3)n2)c2cc(-c3cn4nc(OC)sc4n3)oc2c1 [Example 102] | 9.14 |  | 
COc1cc(OCc2ccnc(C3CC3)n2)c2cc(-c3cn4nc(OC)sc4n3)oc2c1 [Example 103] | 8.86 |  | 
COc1cc(OCc2ccnc(C3COc4ccccc4O3)n2)c2cc(-c3cn4nc(OC)sc4n3)oc2c1 (centres unmarked) [Example 104] | 9.07 |  | 
COc1cc(OCc2ccnc(C3(c4ccccc4)CC3)n2)c2cc(-c3cn4nc(OC)sc4n3)oc2c1 [Example 105] | 8.97 |  | 
COc1cc(OCc2cccc(-c3nc(CO)c(C)s3)c2)c2cc(-c3cn4nc(OC)sc4n3)oc2c1 [Example 106, (2-(3-(((6-Methoxy-2-(2-methoxyimidazo[2,1-b][1,3,4]thiadiazol-6-yl)benzofuran-4-yl)oxy)methyl)phenyl)-5-methylthiazol-4-yl)methanol] | 8.80 |  | 
COc1ncc(-c2cccc(COc3cc(Cl)cc4oc(-c5cn6nc(OC)sc6n5)cc34)c2)cn1 [Example 107, 6-(6-Chloro-4-((3-(2-methoxypyrimidin-5-yl)benzyl)oxy)benzofuran-2-yl)-2-methoxyimidazo[2,1-b][1,3,4]thiadiazole] | 8.96 |  | 
COc1cnc(-c2cccc(COc3cc(Cl)cc4oc(-c5cn6nc(OC)sc6n5)cc34)c2)cn1 [Example 108, 6-(6-Chloro-4-((3-(5-methoxypyrazin-2-yl)benzyl)oxy)benzofuran-2-yl)-2-methoxyimidazo[2,1-b][1,3,4]thiadiazole] | 8.84 |  | 
COc1cc(OCc2cccc(C3(O)CCOCC3)n2)c2cc(-c3cn4nc(OC)sc4n3)oc2c1 [Example 109, 4-(6-(((6-Methoxy-2-(2-methoxyimidazo[2,1-b][1,3,4]thiadiazol-6-yl)benzofuran-4-yl)oxy)methyl)pyridin-2-yl)tetrahydro-2H-pyran-4-ol] | 9.35 |  | 
COc1cc(OCc2cccc(C3(O)CCOCC3)n2)c2cc(-c3cn4nc([C@H](C)F)sc4n3)oc2c1 [Example 110, (S)-4-(6-(((2-(2-(1-Fluoroethyl)imidazo[2,1-b][1,3,4]thiadiazol-6-yl)-6-methoxybenzofuran-4-yl)oxy)methyl)pyridin-2-yl)tetrahydro-2H-pyran-4-ol] | 9.39 | 7.06 | 
COc1cc(OCc2cccc(C3(OC)CCOCC3)n2)c2cc(-c3cn4nc(OC)sc4n3)oc2c1 [Example 111, 2-Methoxy-6-(6-methoxy-4-((6-(4-methoxytetrahydro-2H-pyran-4-yl)pyridin-2-yl)methoxy)benzofuran-2-yl)imidazo[2,1-b][1,3,4]thiadiazole] | 9.64 |  | 
COc1cc(OCc2cccc(C3(OC)CCOCC3)n2)c2cc(-c3cn4nc([C@H](C)F)sc4n3)oc2c1 [Example 112, (S)-2-(1-Fluoroethyl)-6-(6-methoxy-4-((6-(4-methoxytetrahydro-2H-pyran-4-yl)pyridin-2-yl)methoxy)benzofuran-2-yl)imidazo[2,1-b][1,3,4]thiadiazole] | 9.44 |  | 
COc1cc(OCc2cccc(C3(F)CCOCC3)n2)c2cc(-c3cn4nc(OC)sc4n3)oc2c1 [Example 113, 6-(4-((6-(4-Fluorotetrahydro-2H-pyran-4-yl)pyridin-2-yl)methoxy)-6-methoxybenzofuran-2-yl)-2-methoxyimidazo[2,1-b][1,3,4]thiadiazole] | 9.46 |  | 
COc1cc(OCc2cccc(C3(F)CCOCC3)n2)c2cc(-c3cn4nc([C@H](C)F)sc4n3)oc2c1 [Example 114, (S)-2-(1-Fluoroethyl)-6-(4-((6-(4-fluorotetrahydro-2H-pyran-4-yl)pyridin-2-yl)methoxy)-6-methoxybenzo-furan-2-yl)imidazo[2,1-b][1,3,4]thiadiazole] | 9.51 |  | 
CCOC(=O)N[C@@H]1CC[C@@H]2[C@@H](C1)C[C@H]1C(=O)O[C@H](C)[C@H]1[C@H]2/C=C/c1ccc(-c2cccc(F)c2)cn1 [vorapaxar] |  |  | reduction of cardiovascular events [3]: did not significantly reduce; risk of major bleeding [3]: significantly increased
SFFLRR [SFFLRR] |  |  | pEC50 [4]: 6.22
trans-cinnamoyl-Phe(4-F)-Phe(4-guanidino)-Leu-Arg-Arg-NH2 [reference compound] |  |  | inhibition of tissue factor-induced platelet aggregation [5]: effective inhibition
